Earlier results, collected in patent US11154521B2 (Acer Therapeutics Inc., priority 2016, dated 2021).

Legend:
torsinA = conditions: Cho et al. PLoS One 2014
[1] = healthy adults
[2] = test system: cultured human muscle fibers; conditions: Nogalska et al. 2014

| mean terminal half-life [1] [min] | γ-secretase activity [2] | Molecule | ER stress and inhibited cAMP response to forskolin induced by torsinA mutation (torsinA) | proinflammatory molecules and reactive oxygen species (ROS) (activated glial cells) | Aβ42 and its oligomers [2] | lysosomal activity [2] | muscle-fiber vacuolization [2] |
| --- | --- | --- | --- | --- | --- | --- | --- |
|  |  | O=C(O)CCCc1ccccc1 [4-phenylbutyrate] | corrected |  |  |  |  |
| 48 | decrease | sodium phenylbutyrate |  | suppress | decrease | improve | prevent |
